Where two headings read alike, the source gives them in different places.
Legend:
HUVEC cells [1] = assay: EF-induced elongation of endothelial cells (long:short axis ratio); assay type: cell-based, human; conditions: versus control
Description: HUVEC cells were seeded in a trough formed by two parallel (1 cm apart) strips of glass coverslip (No. 1, length of 22 mm) fixed to the base of the dish with silicone grease. Scratch lines were made perpendicular to the long axis of the chamber with a fine sterile needle and used as reference marks for directed cell migration. Cells were incubated for 24-48 hours (37° C., 5% CO2) before a roof coverslip was applied and sealed with silicone grease. The final dimensions of the chamber, through which current was passed, were 22×10×0.2 mm. Agar-salt bridges not less than 15 cm long were used to connect silver/silver-chloride electrodes in beakers of Steinberg's solution (58 mM NaCl, 0.67 mM KCl, 0.44 mM Ca(NO3)2, 1.3 mM MgSO4, 4.6 mM Trizma base, pH 7.8-8.0), to pools of excess culture medium at either side of the chamber. Field strengths were measured directly at the beginning of, the end of and during each experiment. No fluctuations in field strength were observed. […] (50 μM), the Rho kinase inhibitor Y27632 (50 μM), both Akt and Rho kinase inhibitors (10 μM each) or latrunculin (50 nM) for 1 hour before EF stimulation. The same concentration of drug was present during EF exposure in a CO2 incubator.
A series of images was taken with an image analyser immediately before EF exposure and at 4, 8 and 24 hours of EF exposure. Cell orientation was quantified as an orientation index (Oi), which is defined as Oi=cos 2(α), where a is the angle formed by the long axis of a cell with a line drawn perpendicular to the field lines. A cell with its long axis parallel to the vector of the EF will have an Oi of −1, and a cell with its long axis exactly perpendicular to the EF vector will have an Oi of +1. […] The significance of this two-dimensional orientation distribution against randomness was calculated using Rayleigh's distribution. A long:short axis ratio was calculated for assessment of elongation.
HUVEC cells elongated dramatically in an EF. […] We quantified the elongation of the cells using a long:short axis ratio. […]

HUVEC cells [2] = assay: EF-induced reorientation of endothelial cells (orientation index Oi); assay type: cell-based, human
Description: HUVEC cells were seeded in a trough formed by two parallel (1 cm apart) strips of glass coverslip (No. 1, length of 22 mm) fixed to the base of the dish with silicone grease. Scratch lines were made perpendicular to the long axis of the chamber with a fine sterile needle and used as reference marks for directed cell migration. Cells were incubated for 24-48 hours (37° C., 5% CO2) before a roof coverslip was applied and sealed with silicone grease. The final dimensions of the chamber, through which current was passed, were 22×10×0.2 mm. Agar-salt bridges not less than 15 cm long were used to connect silver/silver-chloride electrodes in beakers of Steinberg's solution (58 mM NaCl, 0.67 mM KCl, 0.44 mM Ca(NO3)2, 1.3 mM MgSO4, 4.6 mM Trizma base, pH 7.8-8.0), to pools of excess culture medium at either side of the chamber. Field strengths were measured directly at the beginning of, the end of and during each experiment. […] (50 μM), the Rho kinase inhibitor Y27632 (50 μM), both Akt and Rho kinase inhibitors (10 μM each) or latrunculin (50 nM) for 1 hour before EF stimulation. The same concentration of drug was present during EF exposure in a CO2 incubator.
A series of images was taken with an image analyser immediately before EF exposure and at 4, 8 and 24 hours of EF exposure. Cell orientation was quantified as an orientation index (Oi), which is defined as Oi=cos 2(α), where a is the angle formed by the long axis of a cell with a line drawn perpendicular to the field lines. A cell with its long axis parallel to the vector of the EF will have an Oi of −1, and a cell with its long axis exactly perpendicular to the EF vector will have an Oi of +1. A randomly oriented population of cells will have an average Oi {defined as [Σn cos 2(α)]÷n} of 0. The significance of this two-dimensional orientation distribution against randomness was calculated using Rayleigh's distribution. A long:short axis ratio was calculated for assessment of elongation.

[3] = test system: HaCaT human keratinocytes; assay: Scratch assay, keratinocyte migration, Example 3; assay type: cell-based; conditions: LLEC-treated cells, N-acetylcysteine 5 mM 1 h pretreatment, IGF-1R inhibitor picropodophyllin 50 nM
[4] = drug present 1 hour before and during EF exposure

Compound: C/C1=C/C(=O)O[C@@H]2C[C@@H](CC[C@H](C)/C=C\C=C\CC1)O[C@@](O)([C@@H]1CSC(=O)N1)C2 [Latrunculin A]
- long:short axis ratio / elongation response in EF-treated cells (HUVEC cells [1]): completely abolished
- orientation response of cells in an EF (HUVEC cells [2]; [4]): suppressed the orientation response significantly

Compound: 1-L-6-hydroxymethyl-chiro-inositol 2-[(R)-2-O-methyl-3-O-octadecylcarbonate] [Akt inhibitor]
- long:short axis ratio / elongation response in EF-treated cells (HUVEC cells [1]): significantly decreased
- orientation response of cells in an EF (HUVEC cells [2]; [4]): significantly decreased

Compound: N#CC(=C(/N)Sc1ccccc1N)/C(C#N)=C(\N)Sc1ccccc1N [U0126]
- orientation index Oi (HUVEC cells [2]): 0.33±0.03
- orientation response of cells in an EF (HUVEC cells [2]): decreased the orientation to a similar extent

Compound: C[C@@H](N)[C@H]1CC[C@H](C(=O)Nc2ccncc2)CC1 [Y27632]
- long:short axis ratio / elongation response in EF-treated cells (HUVEC cells [1]): significantly decreased
- orientation response of cells in an EF (HUVEC cells [2]; [4]): decreased the orientation response significantly

Compound: COc1cc([C@@H]2c3cc4c(cc3[C@H](O)[C@H]3COC(=O)[C@@H]23)OCO4)cc(OC)c1OC [IGF-1R inhibitor, picropodophyllin]
- LLEC-increased keratinocyte migration in presence of blocker [3]: attenuated the increased keratinocyte migration

Compound: CC(=O)N[C@@H](CS)C(=O)O [N-Acetyl Cysteine]
- LLEC-increased keratinocyte migration in presence of blocker [3]: failed to reproduce the increased migration
- LLEC-increased keratinocyte migration in presence of blocker ([3]; listed as N-acetyl cysteine): prevented

Compound: COc1cc2ncnc(Nc3ccc(Cl)cc3F)c2cc1OC [VEGFR inhibitor, 4-[(4′-chloro-2′-fluoro)phenylamino]-6,7-dimethoxyquinazoline]
- orientation response of cells in an EF (HUVEC cells [2]; [4]): completely abolished

From patent US11832662B2, “Methods and devices for preventing viral transmission” (priority 2020, dated 2023)
